Data reported in article PMC3108148 (Journal of medicinal chemistry, 2011).

Columns and labels:
XIAP linker-BIR2-BIR3 [1] = molecular target: T1, XIAP linker-BIR2-BIR3 (Homo sapiens, UniProt P98170); assay: Cell-free caspase-3/7 functional assay; conditions: compound 60 μM; XIAP linker-BIR2-BIR3 20 nM
[2] = system: PARP cleavage and caspase-3 processing in MDA-MB-231 cells; assay: Western blot analysis of PARP cleavage and caspase-3 processing; format: cell-based, human; conditions: 24 h; for concentration causing PARP cleavage / concentration causing caspase-3 processing: MDA-MB-231, Western blot; for caspase-3 processing and PARP cleavage: 30 nM, MDA-MB-231
[3] = molecular target: cIAP1 in MDA-MB-231 cells (Homo sapiens, UniProt Q13490); conditions: 24 h, MDA-MB-231, Western blot
[4] = molecular target: XIAP L-BIR2-BIR3 (residues 120–356) (Homo sapiens, UniProt P98170); conditions: relative to 15; cited from earlier work
[5] = molecular target: cIAP-1 BIR3 (residues 253–363) (Homo sapiens, UniProt Q13490); conditions: relative to 15; cited from earlier work
[6] = molecular target: cIAP-2 BIR3 (residues 238–349) (Homo sapiens, UniProt Q13489); conditions: relative to 15; cited from earlier work
MDA-MB-231 xenograft [7] = conditions: 5 mg/kg, mice; cited from earlier work
[8] = system: subset of human cancer cell lines; conditions: cited from earlier work
XIAP linker-BIR2-BIR3 [9] = molecular target: T1, XIAP linker-BIR2-BIR3; assay: Cell-free caspase-9 functional assay; format: biochemical; conditions: compound as high as 100 μM; XIAP 500 nM
Solubility = format: physicochemical
MDA-MB-231 xenograft [10] = conditions: SCID mice; 27 at 1 or 5 mg/kg i.v.; Taxotere […] i.v. days 2 and 9

CN[C@@H](C)C(=O)N[C@H]1CCCC[C@H]2CC[C@@H](C(=O)NC(c3ccccc3)c3ccccc3)N2C1=O [Compound 15]
caspase-3/7 activity restored (XIAP linker-BIR2-BIR3 [1]): 40%

CN[C@@H](C)C(=O)N[C@H]1CCCC[C@H]2CC[C@@H](C(=O)N[C@@H](c3ccccc3)c3cn(CCCCc4ccc(CCCCn5cc([C@@H](NC(=O)[C@@H]6CC[C@@H]7CCCC[C@H](NC(=O)[C@H](C)NC)C(=O)N76)c6ccccc6)nn5)cc4)nn3)N2C1=O [Compound 16]
concentration causing PARP cleavage [2]: 3 nM
concentration causing caspase-3 processing [2]: 3 nM
concentration inducing clear/robust cIAP1 degradation [3]: 1 nM
times more potent than 15 in binding to XIAP containing both BIR2 and BIR3 domains [4]: > 100 times
times more potent than 15 in binding to cIAP1 BIR3 protein [5]: 10 times
times more potent than 15 in binding to cIAP2 BIR3 protein [6]: 10 times
antitumor effect in MDA-MB-231 xenograft model (MDA-MB-231 xenograft [7]): tumor regression
concentrations effectively inducing apoptosis and inhibiting cell growth (as low as) [8]: 1 to 10 nM
times more potent than 15 in inducing apoptosis and inhibiting cell growth [8]: 100 times

CC(=O)N[C@@H](Cc1c[nH]c2ccccc12)C(=O)N[C@H]1CCCC[C@H]2CC[C@@H](C(=O)N[C@@H](c3ccccc3)c3cn(CCCCc4ccc(CCCCn5cc([C@@H](NC(=O)[C@@H]6CC[C@@H]7CCCC[C@H](NC(=O)[C@H](Cc8c[nH]c9ccccc89)NC(C)=O)C(=O)N76)c6ccccc6)nn5)cc4)nn3)N2C1=O [Compound 17]
restoration of caspase-9 activity (XIAP linker-BIR2-BIR3 [9]): fails to restore any caspase-9 activity

CN[C@@H](C)C(=O)N[C@H]1CCCC[C@H]2CC[C@@H](C(=O)N[C@@H](c3ccccc3)c3cn(Cc4ccc(Cn5cc([C@@H](NC(=O)[C@@H]6CC[C@@H]7CCCC[C@H](NC(=O)[C@H](C)NC)C(=O)N76)c6ccccc6)nn5)cc4)nn3)N2C1=O [Compound 18, (S,3S,3′S,6S,6′S,10aS,10a′S)-N,N′-((1S,1′S)-(1,1′-(1,4-phenylenebis(methylene))bis(1H-1,2,3-triazole-4,1-diyl))bis(phenylmethylene))bis(6-((S)-2-(methylamino)propanamido)-5-oxodecahydropyrrolo[1,2-a]azocine-3-carboxamide)]
caspase-3 processing and PARP cleavage [2]: fail to induce caspase-3 processing and PARP cleavage

CN[C@@H](C)C(=O)N[C@H]1CCCC[C@H]2CC[C@@H](C(=O)N[C@@H](c3ccccc3)c3cn(CCc4ccc(CCn5cc([C@@H](NC(=O)[C@@H]6CC[C@@H]7CCCC[C@H](NC(=O)[C@H](C)NC)C(=O)N76)c6ccccc6)nn5)cc4)nn3)N2C1=O [Compound 19, (S,3S,3′S,6S,6′S,10aS,10a′S)-N,N′-((1S,1′S)-(1,1′-(1,4-phenylenebis(ethane-2,1-diyl))bis(1H-1,2,3-triazole-4,1-diyl))bis(phenylmethylene))bis(6-((S)-2-(methylamino)propanamido)-5-oxodecahydropyrrolo[1,2-a]azocine-3-carboxamide)]
caspase-3 processing and PARP cleavage [2]: fail to induce caspase-3 processing and PARP cleavage

CN[C@@H](C)C(=O)N[C@H]1CCCC[C@H]2CC[C@@H](C(=O)N[C@@H](c3ccccc3)c3cn(CCCc4ccc(CCCn5cc([C@@H](NC(=O)[C@@H]6CC[C@@H]7CCCC[C@H](NC(=O)[C@H](C)NC)C(=O)N76)c6ccccc6)nn5)cc4)nn3)N2C1=O [Compound 20, (S,3S,3′S,6S,6′S,10aS,10a′S)-N,N′-((1S,1′S)-(1,1′-(1,4-phenylenebis(propane-3,1-diyl))bis(1H-1,2,3-triazole-4,1-diyl))bis(phenylmethylene))bis(6-((S)-2-(methylamino)propanamido)-5-oxodecahydropyrrolo[1,2-a]azocine-3-carboxamide)]
concentration causing PARP cleavage [2]: 3 nM
concentration causing caspase-3 processing [2]: 10 nM

CN[C@@H](C)C(=O)N[C@H]1CCCC[C@H]2CC[C@@H](C(=O)N[C@@H](c3ccccc3)c3cn(CCCCCCc4ccc(CCCCCCn5cc([C@@H](NC(=O)[C@@H]6CC[C@@H]7CCCC[C@H](NC(=O)[C@H](C)NC)C(=O)N76)c6ccccc6)nn5)cc4)nn3)N2C1=O [Compound 21, (S,3S,3′S,6S,6′S,10aS,10a′S)-N,N′-((1S,1′S)-(1,1′-(1,4-phenylenebis(hexane-6,1-diyl))bis(1H-1,2,3-triazole-4,1-diyl))bis(phenylmethylene))bis(6-((S)-2-(methylamino)propanamido)-5-oxodecahydropyrrolo[1,2-a]azocine-3-carboxamide)]
concentration causing PARP cleavage [2]: 3 nM
concentration causing caspase-3 processing [2]: 3 nM

CN[C@@H](C)C(=O)N[C@H]1CCCC[C@H]2CC[C@@H](C(=O)N[C@@H](c3ccccc3)c3cn(CCCCCOCCCCCn4cc([C@@H](NC(=O)[C@@H]5CC[C@@H]6CCCC[C@H](NC(=O)[C@H](C)NC)C(=O)N65)c5ccccc5)nn4)nn3)N2C1=O [Compound 27, (S,3S,3′S,6S,6′S,10aS,10a′S)-N,N′-((1S,1′S)-(1,1′-(oxybis(pentane-5,1-diyl))bis(1H-1,2,3-triazole-4,1-diyl))bis(phenylmethylene))bis(6-((S)-2-(methylamino)propanamido)-5-oxodecahydropyrrolo[1,2-a]azocine-3-carboxamide)]
solubility (Solubility): excellent solubility
weight loss / signs of toxicity (MDA-MB-231 xenograft [10]): no signs of toxicity
